23 molecules from patent US4775677A, “[3-substituted-2-(substituted imino)-4-oxo-5-thiazolidinylidene]acetic acids having activity as leukotriene antagonists” (Warner-Lambert Company, priority 1987, dated 1988) can be followed below.

This test concerns the target leukotriene receptor. As to the kind of experiment: leukotriene receptor binding assay (RBL-1). To be noted: Bruns et al. An excerpt:
The usefulness of the compounds of Formula I is particularly directed to the treatment of humans. By virtue of the activity of the compounds having the Formula I of the present invention as antagonists of Slow Reacting Substance of Anaphylaxis (leukotrienes C, D, and E) are useful in the treatment of allergic rhinitis, asthma, bronchitis, and urticaria. They are also particularly useful for the treatment of cardiovascular diseases mediated by leukotrienes, C, D, and E. See B. Samuelsson, "Leukotrienes: Mediators of Immediate Hypersensitivity Reactions and Inflammation,"Science, Vol. 220, p. 568 (1983); P. J. Piper, "Leukotrienes," Trends in Pharmaceutic Sciences, pp. 75-77 (1983; and J. L. Romson, et al, "Reduction of the Extent of Ischemic Myocardial Injury by Neutrophil Depletion in the Dog," Circulation, Vol. 67, p. 1016 (1983). The activity of the compounds I of the present invention is determined in a leukotriene receptor binding assay (RBL-1) described by R. F. Bruns, W. J. Thomsen, and T. A. Pugsley in Life Sciences, 33, p. 645 (1983).
When tested by the procedures in a leukotriene receptor binding assay (RBL-1) as described by Bruns et al cited above, the compounds of the Formula I as defined in the present invention have the indicated activity as shown in Table 5 as IC50 values expressed in μMs (micromolar).

As to `CCCCCCCCN=C1SC(=CC(=O)O)C(=O)N1CCCCCCCC` [Example 1, [3-Octyl-2-(octylimino)-4-oxo-5-thiazolidinylidene]acetic acid], the half-maximal inhibitory concentration (IC50) was determined as 19 µM.

With `CCN=C1SC(=CC(=O)O)C(=O)N1CC` [Example 2, [3-Ethyl-2-(ethylimino)-4-oxo-5-thiazolidinylidene]acetic acid], the IC50 is more than 100 µM.

`CCCCCN=C1SC(=CC(=O)O)C(=O)N1CCCCC` [Example 3, [3-Pentyl-2-(pentylimino)-4-oxo-5-thiazolidinylidene]acetic acid] registered a 50% inhibitory concentration (IC50) of 15.4 µM.

The molecule `CCCCCCN=C1SC(=CC(=O)O)C(=O)N1CCCCCC` [Example 4, [3-Hexyl-2-(hexylimino)-4-oxo-5-thiazolidinylidene]acetic acid] returned an IC50 of 24.5 µM.

Regarding `COc1cc(N=C2SC(=CC(=O)O)C(=O)N2c2cc(OC)c(OC)c(OC)c2)cc(OC)c1OC` [Example 6, [4-Oxo-3-(3,4,5-trimethoxyphenyl)-2-[(3,4,5-trimethoxyphenyl)imino]-5-thiazolidinylidene]acetic acid], the concentration for half-maximal inhibition (IC50) was more than 100 µM.

Take `COc1ccc(N=C2SC(=CC(=O)O)C(=O)N2c2ccc(OC)cc2)cc1` [Example 7, [4-Oxo-3-(4-methoxyphenyl)-2-[(4-methoxyphenyl)imino]-5-thiazolidinylidene]acetic acid]: the IC50 was more than 100 µM.

`CCCN=C1SC(=CC(=O)O)C(=O)N1CCC` [Example 8, [4-Oxo-3-propyl-2-(propylimino)-5-thiazolidinylidene]acetic acid]: the IC50 was more than 100 µM.

As for `CCCCN=C1SC(=CC(=O)O)C(=O)N1CCCC` [Example 9, [3-Butyl-2-(butylimino)-4-oxo-5-thiazolidinylidene]acetic acid], the IC50 was more than 100 µM.

`COc1ccccc1N=C1SC(=CC(=O)O)C(=O)N1c1ccccc1OC` [Example 10, [3-(2-Methoxyphenyl)-2-[(2-methoxyphenyl)imino]-4-oxo-5-thiazolidinylidene]acetic acid] gave an IC50 of more than 100 µM.

Molecule `CCCCCCN1C(=O)C(=CC(=O)O)SC1=Nc1ccc(Cl)c(Cl)c1` [Example 11, [2-[(3,4-dichlorophenyl)imino]-3-hexyl-4-oxo-5-thiazolidinylidene]acetic acid] had an IC50 of 12.2 µM.

As to `CN1C(=O)C(=CC(=O)O)SC1=Nc1ccc(Cl)c(Cl)c1` [Example 12, [2-[(3,4-dichlorophenyl)imino]-3-methyl-4-oxo-5-thiazolidinylidene]acetic acid], the half-maximal inhibitory concentration (IC50) was more than 100 µM.

`CCCCCCN1C(=O)C(=CC(=O)O)SC1=Nc1ccccc1` [Example 13, [3-Hexyl-4-oxo-2-(phenylimino)-5-thiazolidinylidene]acetic acid] returned an IC50 of 39.2 µM.

Regarding `O=C(O)C=C1SC(=NCCc2ccccc2)N(CCc2ccccc2)C1=O` [Example 15, [4-Oxo-3-(2-phenylethyl)-2-[(2-phenylethyl)imino]-5-thiazolidinylidene]acetic acid], the half-inhibitory concentration (IC50) was more than 100 µM.

Molecule `CCCCCCCCCCCN=C1SC(=CC(=O)O)C(=O)N1CCCCCCCCCCC` [Example 16, [3-Undecyl-2-(undecylimino)-4-oxo-5-thiazolidinylidene]acetic acid] had an IC50 of more than 100 µM.

Turning to `CCCCCCN1C(=O)C(=CC(=O)O)SC1=Nc1cccc2ccccc12` [Example 17, [3-Hexyl-2-[(1-naphthalenyl)imino]-4-oxo-5-thiazolidinylidene]acetic acid], the half-maximal inhibitory concentration (IC50) amounted to 10.3 µM.

As for `CCCCCCCN=C1SC(=CC(=O)O)C(=O)N1CCCCCCC` [Example 18, [3-Heptyl-2-(heptylimino)-4-oxo-5-thiazolidinylidene]acetic acid], the IC50 was determined as 12.7 µM.

For `CCCCCCCCCCN=C1SC(=CC(=O)O)C(=O)N1CCCCCCCCCC` [Example 19, [3-Decyl-2-(decylimino)-4-oxo-5-thiazolidinylidene]acetic acid], the IC50 was more than 100 µM.

The molecule `CCCCCCCCCCCCN=C1SC(=CC(=O)O)C(=O)N1CCCCCCCCCCCC` [Example 20, [3-Dodecyl-2-(dodecylimino)-4-oxo-5-thiazolidinylidene]acetic acid] yielded a half-inhibitory concentration (IC50) of more than 100 µM.

In the case of `O=C(O)C=C1SC(=Nc2ccc(Cl)c(Cl)c2)N(c2ccc(Cl)c(Cl)c2)C1=O` [Example 21, [4-oxo-3-(3,4-dichlorophenyl)-2-[(3,4-dichlorophenyl)imino]-5-thiazolidinylidene]acetic acid], the 50% inhibitory concentration (IC50) was determined as 15.6 µM.

For the molecule `O=C(O)C=C1SC(=Nc2ccc(Br)c(Br)c2)N(c2ccc(Br)c(Br)c2)C1=O` [Example 22, [4-Oxo-3-(3,4-dibromophenyl)-2-[(3,4-dibromophenyl)imino]-5-thiazolidinylidene]acetic acid], the IC50 was determined as 18.9 µM.

`O=C(O)C=C1SC(=Nc2cc(Cl)c(Cl)c(Cl)c2)N(c2cc(Cl)c(Cl)c(Cl)c2)C1=O` [Example 23] gave an IC50 of 13.1 µM.

As for `COc1cccc(N=C2SC(=CC(=O)O)C(=O)N2c2cccc(OC)c2)c1` [Example 24, [3-(3-Methoxyphenyl)-2-[(3-methoxyphenyl)imino]-4-oxo-5-thiazolidinylidene]acetic acid], the concentration for half-maximal inhibition (IC50) was more than 100 µM.

For the molecule `O=C(O)C=C1SC(=NC2CCCCC2)N(C2CCCCC2)C1=O` [Example 25, [3-Cyclohexyl-2-(cyclohexylimino)-4-oxo-5-thiazolidinylidene]acetic acid], the 50% inhibitory concentration (IC50) worked out at 62.5 µM.
